According to patent US11198713B2, “Agents modulating beta-catenin functions and methods thereof” (FOG PHARMACEUTICALS, INC., priority 2017, dated 2021):

Molecular target: T1, full-length beta-catenin (Axin site) (Homo sapiens, UniProt P35222)
T1 construct: 15 nM full-length beta-catenin, 20 nM FITC labeled peptide in buffer
T1 sequence (P35222 1-781): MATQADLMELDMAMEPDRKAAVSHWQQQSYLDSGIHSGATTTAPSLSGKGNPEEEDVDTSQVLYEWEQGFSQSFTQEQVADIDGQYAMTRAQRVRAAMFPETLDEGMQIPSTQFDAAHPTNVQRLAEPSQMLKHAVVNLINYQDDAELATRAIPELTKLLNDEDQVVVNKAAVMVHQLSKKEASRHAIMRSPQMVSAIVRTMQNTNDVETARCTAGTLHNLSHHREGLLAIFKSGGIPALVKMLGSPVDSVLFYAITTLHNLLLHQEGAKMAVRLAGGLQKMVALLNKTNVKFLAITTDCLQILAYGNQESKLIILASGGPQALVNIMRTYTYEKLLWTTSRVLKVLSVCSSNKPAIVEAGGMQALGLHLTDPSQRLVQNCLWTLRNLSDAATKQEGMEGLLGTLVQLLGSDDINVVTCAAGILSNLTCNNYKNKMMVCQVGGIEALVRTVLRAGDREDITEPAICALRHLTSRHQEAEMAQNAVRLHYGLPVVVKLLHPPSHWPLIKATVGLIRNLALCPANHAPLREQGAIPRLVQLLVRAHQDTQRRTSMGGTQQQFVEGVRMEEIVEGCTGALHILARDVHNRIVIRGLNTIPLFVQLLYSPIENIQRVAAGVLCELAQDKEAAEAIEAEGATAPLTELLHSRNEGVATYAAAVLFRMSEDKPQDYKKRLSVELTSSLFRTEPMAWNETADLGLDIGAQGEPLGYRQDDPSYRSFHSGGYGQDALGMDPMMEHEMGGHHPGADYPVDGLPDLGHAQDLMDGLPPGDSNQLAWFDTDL
Assay: Competition fluorescence polarization assay (Axin site probe)
Assay type: binding
Conditions: competition fluorescence polarization, Table 2; read-out: in vitro FP EC50
Summary of the method: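 Competition FP: 15 nM full-length β-catenin pre-incubated 5 min with 20 nM FITC-labelled stapled Axin-site peptide, then titrated peptide added (3-fold series from 5 μM) for 15 min in the dark. Buffer 50 mM Tris pH 8.0, 250 mM NaCl, 2% glycerol, 0.5 mM EDTA; duplicate reads.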

| SMILES | EC50 |
| --- | --- |
| CC[C@H](C)[C@@H]1NC(=O)[C@H](Cc2ccccn2)NC(=O)[C@H](C)NC(=O)[C@H](CC(=O)O)NC(=O)[C@H](CC(C)C)NC(=O)[C@H]([C@@H](C)CC)NC(=O)[C@](C)(NC(=O)[C@H](C)NC(C)=O)CCCCCCC=CCOC(=O)N2CC[C@@](C(=O)N[C@@H](CC3CC3)C(=O)N[C@H](C(=O)N[C@@H](Cc3c[nH]c4ccccc34)C(N)=O)C(C)C)(C2)NC1=O (single isomer, unassigned) [FP0574c Isomer 1, Ac-A-R8-I-L-D-A-2pyr-I-MB-cpa-V-W-NH2] | > 5 µM |
| CC[C@H](C)[C@@H]1NC(=O)[C@H](Cc2ccccn2)NC(=O)[C@H](C)NC(=O)[C@H](CC(=O)O)NC(=O)[C@H](CC(C)C)NC(=O)[C@H]([C@@H](C)CC)NC(=O)[C@](C)(NC(=O)[C@H](C)NC(C)=O)CCCCCCC=CCOC(=O)N2CC[C@@](C(=O)N[C@@H](CC3CC3)C(=O)N[C@H](C(=O)N[C@@H](Cc3c[nH]c4ccccc34)C(N)=O)C(C)C)(C2)NC1=O (single isomer, unassigned) [FP0574c Isomer 2, Ac-A-R8-I-L-D-A-2pyr-I-MB-cpa-V-W-NH2] | > 5 µM |
| CC[C@H](C)[C@@H]1NC(=O)[C@H](Cc2ccccn2)NC(=O)[C@H](C)NC(=O)[C@H](CC(=O)O)NC(=O)[C@H](CC(C)C)NC(=O)[C@H]([C@@H](C)CC)NC(=O)[C@](C)(NC(=O)[C@H](C)NC(C)=O)CCCCCCC=CCOC(=O)N2CC[C@@](C(=O)N[C@@H](Cc3ccc(OC)cc3)C(=O)N[C@H](C(=O)N[C@@H](Cc3c[nH]c4ccccc34)C(N)=O)C(C)C)(C2)NC1=O (single isomer, unassigned) [FP0575c Isomer 1, Ac-A-R8-I-L-D-A-2pyr-I-MB-MeY-V-W-NH2] | > 5 µM |
| CC[C@H](C)[C@@H]1NC(=O)[C@H](Cc2ccccn2)NC(=O)[C@H](C)NC(=O)[C@H](CC(=O)O)NC(=O)[C@H](CC(C)C)NC(=O)[C@H]([C@@H](C)CC)NC(=O)[C@](C)(NC(=O)[C@H](C)NC(C)=O)CCCCCCC=CCOC(=O)N2CC[C@@](C(=O)N[C@@H](Cc3ccc(OC)cc3)C(=O)N[C@H](C(=O)N[C@@H](Cc3c[nH]c4ccccc34)C(N)=O)C(C)C)(C2)NC1=O (single isomer, unassigned) [FP0575c Isomer 2, Ac-A-R8-I-L-D-A-2pyr-I-MB-MeY-V-W-NH2] | > 5 µM |
| CC[C@H](C)[C@@H]1NC(=O)[C@H](Cc2ccccn2)NC(=O)[C@H](C)NC(=O)[C@H](CC(=O)O)NC(=O)[C@H](CC(C)C)NC(=O)[C@H]([C@@H](C)CC)NC(=O)[C@](C)(NC(=O)[C@H](C)NC(C)=O)CCCCCCC=CCOC(=O)N2CC[C@@](C(=O)N[C@@H](Cc3ccc(F)cc3)C(=O)N[C@H](C(=O)N[C@@H](Cc3c[nH]c4ccccc34)C(N)=O)C(C)C)(C2)NC1=O (single isomer, unassigned) [FP0576c Isomer 1, Ac-A-R8-I-L-D-A-2pyr-I-MB-4FF-V-W-NH2] | > 5 µM |
| CC[C@H](C)[C@@H]1NC(=O)[C@H](Cc2ccccn2)NC(=O)[C@H](C)NC(=O)[C@H](CC(=O)O)NC(=O)[C@H](CC(C)C)NC(=O)[C@H]([C@@H](C)CC)NC(=O)[C@](C)(NC(=O)[C@H](C)NC(C)=O)CCCCCCC=CCOC(=O)N2CC[C@@](C(=O)N[C@@H](Cc3ccc(F)cc3)C(=O)N[C@H](C(=O)N[C@@H](Cc3c[nH]c4ccccc34)C(N)=O)C(C)C)(C2)NC1=O (single isomer, unassigned) [FP0576c Isomer 2, Ac-A-R8-I-L-D-A-2pyr-I-MB-4FF-V-W-NH2] | > 5 µM |
| CC[C@H](C)[C@@H]1NC(=O)[C@H](Cc2ccccn2)NC(=O)[C@H](C)NC(=O)[C@H](CC(=O)O)NC(=O)[C@H](CC(C)C)NC(=O)[C@H]([C@@H](C)CC)NC(=O)[C@](C)(NC(=O)[C@H](C)NC(C)=O)CCCCCCC=CCOC(=O)N2CC[C@@](C(=O)N[C@@H](Cc3cccc4ccccc34)C(=O)N[C@H](C(=O)N[C@@H](Cc3c[nH]c4ccccc34)C(N)=O)C(C)C)(C2)NC1=O (single isomer, unassigned) [FP0577c Isomer 1, Ac-A-R8-I-L-D-A-2pyr-I-MB-1NapA-V-W-NH2] | > 5 µM |
| CC[C@H](C)[C@@H]1NC(=O)[C@H](Cc2ccccn2)NC(=O)[C@H](C)NC(=O)[C@H](CC(=O)O)NC(=O)[C@H](CC(C)C)NC(=O)[C@H]([C@@H](C)CC)NC(=O)[C@](C)(NC(=O)[C@H](C)NC(C)=O)CCCCCCC=CCOC(=O)N2CC[C@@](C(=O)N[C@@H](Cc3ccc(C)cc3)C(=O)N[C@H](C(=O)N[C@@H](Cc3c[nH]c4ccccc34)C(N)=O)C(C)C)(C2)NC1=O (single isomer, unassigned) [FP0578c Isomer 1, Ac-A-R8-I-L-D-A-2pyr-I-MB-4MeF-V-W-NH2] | > 5 µM |
| CC[C@H](C)[C@@H]1NC(=O)[C@H](Cc2ccccn2)NC(=O)[C@H](C)NC(=O)[C@H](CC(=O)O)NC(=O)[C@H](CC(C)C)NC(=O)[C@H]([C@@H](C)CC)NC(=O)[C@](C)(NC(=O)[C@H](C)NC(C)=O)CCCCCCC=CCOC(=O)N2CC[C@@](C(=O)N[C@@H](Cc3ccc(C)cc3)C(=O)N[C@H](C(=O)N[C@@H](Cc3c[nH]c4ccccc34)C(N)=O)C(C)C)(C2)NC1=O (single isomer, unassigned) [FP0578c Isomer 2, Ac-A-R8-I-L-D-A-2pyr-I-MB-4MeF-V-W-NH2] | > 5 µM |

Results, then the compound that gave them:

| EC50 | SMILES |
| --- | --- |
| 0.5 to 5 µM | CC[C@H](C)[C@@H]1NC(=O)C2(NC(=O)[C@H](CCC(N)=O)NC(=O)[C@@H]3CCCN3C(C)=O)CN(C2)C(=O)OCC=CCC[C@](C)(C(=O)N[C@@H](Cc2c[nH]cn2)C(=O)N[C@H](C(=O)N[C@@H](CCCNC(=N)N)C(=O)N[C@@H](CCCNC(=N)N)C(=O)N[C@H](C(=O)N[C@@H](Cc2c[nH]c3ccccc23)C(=O)N[C@@H](CCCNC(=N)N)C(N)=O)C(C)C)C(C)C)NC(=O)[C@H](CC(=O)O)NC(=O)[C@H](CC(C)C)NC1=O (single isomer, unassigned) [FP0721c, Ac-P-Q-MA-I-L-D-R4-H-V-R-R-V-W-R-NH2] |
| 0.5 to 5 µM | CC[C@H](C)[C@@H]1NC(=O)C2(NC(=O)[C@H](CCC(N)=O)NC(=O)[C@@H]3CCCN3C(C)=O)CN(C2)C(=O)OCC=CCCC[C@](C)(C(=O)N[C@@H](Cc2c[nH]cn2)C(=O)N[C@H](C(=O)N[C@@H](CCCNC(=N)N)C(=O)N[C@@H](CCCNC(=N)N)C(=O)N[C@H](C(=O)N[C@@H](Cc2c[nH]c3ccccc23)C(=O)N[C@@H](CCCNC(=N)N)C(N)=O)C(C)C)C(C)C)NC(=O)[C@H](CC(=O)O)NC(=O)[C@H](CC(C)C)NC1=O (single isomer, unassigned) [FP0723c, Ac-P-Q-MA-I-L-D-R5-H-V-R-R-V-W-R-NH2] |
| 0.5 to 5 µM | CC[C@H](C)[C@@H]1NC(=O)C2(NC(=O)[C@H](CCC(N)=O)NC(=O)[C@@H]3CCCN3C(C)=O)CN(C2)C(=O)OCC=CCCC[C@@](C)(C(=O)N[C@@H](Cc2c[nH]cn2)C(=O)N[C@H](C(=O)N[C@@H](CCCNC(=N)N)C(=O)N[C@@H](CCCNC(=N)N)C(=O)N[C@H](C(=O)N[C@@H](Cc2c[nH]c3ccccc23)C(=O)N[C@@H](CCCNC(=N)N)C(N)=O)C(C)C)C(C)C)NC(=O)[C@H](CC(=O)O)NC(=O)[C@H](CC(C)C)NC1=O (single isomer, unassigned) [FP0724c, Ac-P-Q-MA-I-L-D-S5-H-V-R-R-V-W-R-NH2] |
| 0.5 to 5 µM | CC[C@H](C)[C@@H]1NC(=O)C2(NC(=O)[C@H](CCC(N)=O)NC(=O)[C@@H]3CCCN3C(C)=O)CN(CC=CCCCC[C@](C)(C(=O)N[C@@H](Cc3c[nH]cn3)C(=O)N[C@H](C(=O)N[C@@H](CCCNC(=N)N)C(=O)N[C@@H](CCCNC(=N)N)C(=O)N[C@H](C(=O)N[C@@H](Cc3c[nH]c4ccccc34)C(=O)N[C@@H](CCCNC(=N)N)C(N)=O)C(C)C)C(C)C)NC(=O)[C@H](CC(=O)O)NC(=O)[C@H](CC(C)C)NC1=O)C2 (single isomer, unassigned) [FP0725a, Ac-P-Q-MA-I-L-D-R6-H-V-R-R-V-W-R-NH2] |
| 0.5 to 5 µM | CC[C@H](C)[C@@H]1NC(=O)C2(NC(=O)[C@H](CCC(N)=O)NC(=O)[C@@H]3CCCN3C(C)=O)CN(C2)C(=O)OCC=CCCCCC[C@](C)(C(=O)N[C@@H](Cc2c[nH]cn2)C(=O)N[C@H](C(=O)N[C@@H](CCCNC(=N)N)C(=O)N[C@@H](CCCNC(=N)N)C(=O)N[C@H](C(=O)N[C@@H](Cc2c[nH]c3ccccc23)C(=O)N[C@@H](CCCNC(=N)N)C(N)=O)C(C)C)C(C)C)NC(=O)[C@H](CC(=O)O)NC(=O)[C@H](CC(C)C)NC1=O (single isomer, unassigned) [FP0727c, Ac-P-Q-MA-I-L-D-R7-H-V-R-R-V-W-R-NH2] |
| 0.5 to 5 µM | CC[C@H](C)[C@@H]1NC(=O)C2(NC(=O)[C@H](CCC(N)=O)NC(=O)[C@@H]3CCCN3C(C)=O)CN(C2)C(=O)OCC=CCCCCC[C@@](C)(C(=O)N[C@@H](Cc2c[nH]cn2)C(=O)N[C@H](C(=O)N[C@@H](CCCNC(=N)N)C(=O)N[C@@H](CCCNC(=N)N)C(=O)N[C@H](C(=O)N[C@@H](Cc2c[nH]c3ccccc23)C(=O)N[C@@H](CCCNC(=N)N)C(N)=O)C(C)C)C(C)C)NC(=O)[C@H](CC(=O)O)NC(=O)[C@H](CC(C)C)NC1=O (single isomer, unassigned) [FP0728c, Ac-P-Q-MA-I-L-D-S7-H-V-R-R-V-W-R-NH2] |
